{
  "source": "paper PMC9832345",
  "about": "(RSC Advances, 2023)",
  "tested_on": "third instar larvae of Spodoptera litura",
  "assay": "Leaf-dip larvicidal assay",
  "format": "in vivo",
  "settings": "for Eating area (%): 96 h",
  "data": [
    {"smiles": "Cc1cc(Cl)cc(S(C)(=O)=O)c1NC(=O)c1cc(Br)nn1-c1ncccc1Cl", "note": "[Compound 8]", "values": [
      {"measurement": "Eating area (%)", "setting": "6.25 ppm", "value": "0–5%"},
      {"measurement": "Eating area (%)", "setting": "12.5 ppm", "value": "0–5%"}
    ]},
    {"smiles": "CNC(=O)c1cc(Cl)cc(C)c1NC(=O)c1cc(Br)nn1-c1ncccc1Cl", "note": "[Chlorantraniliprole, chlorantraniliprole]", "values": [
      {"measurement": "Eating area (%)", "setting": "6.25 ppm", "value": "0–5%"},
      {"measurement": "Eating area (%)", "setting": "12.5 ppm", "value": "0–5%"},
      {"measurement": "eating area", "setting": "concentration not given", "value": "0–5%"}
    ]}
  ]
}
